Source: patent US20120165319A1, “INHIBITORS OF INTERLEUKIN-1 BETA CONVERTING ENZYME” (VERTEX PHARMACEUTICALS INCORPORATED, priority 1995, published 2012)
pIC50, pKi: −log10 of the molar value.

Target: T1, ICE (Homo sapiens, UniProt P29466)
T1 sequence (P29466 120-297 limits assumed): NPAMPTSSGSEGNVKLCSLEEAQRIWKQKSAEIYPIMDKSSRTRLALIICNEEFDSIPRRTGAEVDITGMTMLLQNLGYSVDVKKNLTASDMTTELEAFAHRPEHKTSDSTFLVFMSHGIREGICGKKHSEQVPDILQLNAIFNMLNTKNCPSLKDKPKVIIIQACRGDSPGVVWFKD
T1 sequence (P29466 317-404 limits assumed): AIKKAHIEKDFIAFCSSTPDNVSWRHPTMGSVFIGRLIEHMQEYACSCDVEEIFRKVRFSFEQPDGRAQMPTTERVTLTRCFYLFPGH
Experiment: Enzyme assay with UV-visible substrate (visible ICE assay, Succinyl-Tyr-Val-Ala-Asp-pNitroanilide)
Type: biochemical
Details: Table 5
Summary of the method: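 ICE preincubated with inhibitor in DMSO for 15 min at room temperature, then Suc-Tyr-Val-Ala-Asp-pNA added. pNA release read at 405-603 nm for 20 min at 37 °C, rate from linear fit in mOD/min. Ki and inhibition mode from fits of rates at varying inhibitor concentrations to standard kinetic equations.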

pKi	Molecule
7.54	COCC(=O)N1C[C@H](NC(=O)c2ccccc2)C(=O)N(CC(=O)N[C@H](C=O)CC(=O)O)c2ccccc21 [Compound 605e, (3S)-3-[(3S)-2-Oxo-3-benzoylamino-5-methoxyacetyl-2,3,4,5-tetrahydro-1H-1,5-benzodiazepin-1-acetylamino]-4-oxo-butyric acid]
8.60	O=C[C@H](CC(=O)O)NC(=O)[C@@H]1CCCN2C(=O)CC[C@H](NC(=O)c3ccc4c(c3)OCO4)C(=O)N12 [Compound 415, [3S(1S,9S)]3-[6,10-Dioxo-9-(3,4-methylenedioxybenzoylamino)-1,2,3,4,7,8,9,10-octahydro-6H-pyridazino[1,2-a][1,2]diazepine-1-carboxamido]-4-oxobutanoic acid]
5.96	N#C[C@H](CC(=O)O)NC(=O)[C@@H]1CCCN2C(=O)CC[C@H](NC(=O)c3ccccc3)C(=O)N12 [Compound 232e, [3S(1S,9S)]9-(Benzoylamino)-3-[6,10-dioxo-1,2,3,4,7,8,9,10-octahydro-6H-pyridazino-[1,2-a][1,2]diazepine-1-carboxamido]-3-cyanopropanoic acid]

Molecule	pKi
CCOC(=O)C[C@H](NC(=O)[C@@H]1CCCN2C(=O)CC[C@H](NC(=O)c3ccccc3)C(=O)N12)C(OCC)OCC [Compound 2100b]	5.10

Same assay, conditions: Table 17

Molecule	pKi
O=C[C@H](CC(=O)O)NC(=O)CN1C(=O)[C@@H](NC(=O)c2ccccc2)CN(C(=O)CO)c2ccccc21 [Compound 668, (3S)-3-[(3S)-2-Oxo-3-benzoylamino-5-(2-hydroxy)acetyl-2,3,4,5-tetrahydro-1H-1,5-benzodiazepine-1-acetylamino]-4-oxo-butyric acid]	8.05
COc1c(Cl)cc(C(=O)N[C@H]2CCC(=O)N3CCC[C@@H](C(=O)N[C@H](C=O)CC(=O)O)N3C2=O)cc1Cl [Compound 214m]	8.82
O=C[C@H](CC(=O)O)NC(=O)[C@@H]1CCCN2C(=O)CC[C@H](NC(=O)c3cc(Cl)c(O)c(Cl)c3)C(=O)N12 [Compound 214k, [3S(1S,9S)]3-(9-(3,5-Dichloro-4-hydroxybenzoyl)amino-6,10-dioxo-1,2,3,4,7,8,9,10-octahydro-6H-pyridazino[1,2-a][1,2]diazepine-1-carboxamido)-4-oxobutanoic acid]	9.70
COC(=O)N[C@H]1CCC(=O)N2CCC[C@@H](C(=O)N[C@@H](CC(=O)O)C(=O)CSc3ncccn3)N2C1=O [Compound 511c, [3S(1S,9S)]3-[6,10-Dioxo-9-(methoxycarbonyl)-amino-1,2,3,4,7,8,9,10-octahydro-6H-pyridazino[1,2-a][1,2]diazepine-1-carboxamido]-5-(2-mercaptopyrimidine)-4-oxopentanoic acid]	6.14

System: IL-1β, human whole blood
Experiment: Whole blood assay for IL-1β production
Type: cell-based
Details: * = values obtained upon reassay; read-out: Whole human blood IC50
Summary of the method: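 IL-1β was quantified by ELISA in plasma diluted 1:200. The plasma came from EDTA-anticoagulated human whole blood incubated at 30 °C for 16-18 h with LPS (final 5.0 ng/ml) plus a saline serial dilution of compound. Controls were no-LPS, no-inhibitor and highest-vehicle.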

pIC50	Molecule
6.52	O=C(O)CC(NC(=O)[C@@H]1CCCN2C(=O)CC[C@H](NC(=O)c3ccccc3)C(=O)N12)C(=O)CF (stereo partly drawn) [Compound 230e, [3RS,(1S,9S)]3-(9-Benzoylamino-6,10-dioxo-1,2,3,4,7,8,9,10-octahydro-6H-pyridazino[1,2-a][1,2]-diazepine-1-carboxamido)-5-fluoro-4-oxopentanoic acid]

Same assay, conditions: Homo sapiens, * = values obtained upon reassay; read-out: Whole human blood IC50

pIC50	Molecule
< 5.00	COCC(=O)N1C[C@H](NC(=O)c2ccccc2)C(=O)N(CC(=O)N[C@H](C=O)CC(=O)O)c2ccccc21 [Compound 605e, (3S)-3-[(3S)-2-Oxo-3-benzoylamino-5-methoxyacetyl-2,3,4,5-tetrahydro-1H-1,5-benzodiazepin-1-acetylamino]-4-oxo-butyric acid]
< 6.00	O=C(O)C[C@H](NC(=O)[C@@H]1CCCN2C(=O)CC[C@H](NC(=O)c3ccccc3)C(=O)N12)C(=O)CSc1nnnn1-c1ccccc1 [Compound 280, [3S(1S,9S)]3-(9-Benzoylamino-6,10-dioxo-1,2,3,4,7,8,9,10-octahydro-6H-pyridazino[1,2-a][1,2]diazepine-1-carboxamido)-4-oxo-5(1-phenyl-1H-tetrazole-5-thio)pentanoic acid]
4.85	O=C(O)C[C@H](NC(=O)[C@@H]1CCCN2C(=O)CC[C@H](NC(=O)CCc3ccccc3)C(=O)N12)C(=O)c1ncc(-c2c(Cl)cccc2Cl)o1 [Compound 137]
5.55	O=C(O)C[C@H](NC(=O)[C@@H]1CCCN2C(=O)CC[C@H](NC(=O)CCc3ccccc3)C(=O)N12)C(=O)COC(=O)c1c(Cl)cccc1Cl [Compound 136]
5.30	COc1cccc2nc(C(=O)[C@H](CC(=O)O)NC(=O)[C@@H]3CCCN4C(=O)CC[C@H](NC(=O)CCc5ccccc5)C(=O)N34)oc12 [Compound 135a]
6.35	O=C(O)C[C@H](NC(=O)[C@@H]1CCCN2C(=O)CC[C@H](NC(=O)c3ccccc3)C(=O)N12)C(=O)COc1cccnc1 [Compound 283, [3S(1S,9S)]3-[9-Benzoylamino-6,10-dioxo-1,2,3,4,7,8,9,10-octahydro-6H-pyridazino[1,2-a][1,2]diazepine-1-carboxamido]-4-oxo-5-(3-pyridyloxy)pentanoic acid]
5.15	CC(=O)N[C@H]1CCC(=O)N2CCC[C@@H](C(=O)N[C@@H](CC(=O)O)C(=O)COC(=O)c3c(Cl)cccc3Cl)N2C1=O [Compound 217c, [3S(1S,9S)]3-(9-Acetylamino-6,10-dioxo-1,2,3,4,7,8,9,10-octahydro-6H-pyridazino-[1,2-a][1,2]diazepine-1-carboxamido)-5-(2,6-dichlorobenzoyloxy)-4-oxopentanoic acid]
6.26	COC(=O)N[C@H]1CCC(=O)N2CCC[C@@H](C(=O)N[C@@H](CC(=O)O)C(=O)COC(=O)c3c(Cl)cccc3Cl)N2C1=O [Compound 284, [3S(1S,9S)]5-(2,6-Dichlorobenzoyloxy)-3-[6,10-dioxo-9-(methoxycarbonyl)amino-1,2,3,4,7,8,9,10-octahydro-6H-pyridazino[1,2-a][1,2]diazepine-1-carboxamido]-4-oxopentanoic acid]
6.00	COC(=O)N[C@H]1CCC(=O)N2CCC[C@@H](C(=O)N[C@@H](CC(=O)O)C(=O)COC(=O)c3c(C)cccc3C)N2C1=O [Compound 285, [3S(1S,9S)]5-(2,6-Dimethylbenzoyloxy)-3-[6,10-dioxo-9-(methoxycarbonyl)amino-1,2,3,4,7,8,9,10-octahydro-6H-pyridazino[1,2-a][1,2]diazepine-1-carboxamido]-4-oxopentanoic acid]
5.35	O=C(O)C[C@H](NC(=O)[C@@H]1CCCN2C(=O)CC[C@H](NC(=O)CCc3ccccc3)C(=O)N12)C(=O)CSCc1ccccc1Cl [Compound 125b, [3S(1S,9S)]-3-(6,10-dioxo-1,2,3,4,7,8,9,10-octahydro)-9-(3-phenylpropionyl-amino)-6H-pyridazine[1,2-a][1,2]diazepine-1-carboxamido-5-(2-chlorophenyl-methylthio)-4-oxopentanoic acid]
5.29	O=C[C@H](CC(=O)O)NC(=O)[C@@H]1CCCN2C(=O)CC[C@H](NC(=O)CCc3ccccc3)C(=O)N12 [Compound 47a, [3S(1S,9S)]3-(6,10-Dioxo-octahydro-9-(3-phenylpropionylamino)-6H-pyridazino[1,2-a][1,2]diazepine-1-carboxamido)-4-oxobutanoic acid]

Molecule	pIC50
CCOC(=O)C[C@H](NC(=O)[C@@H]1CCCN2C(=O)CC[C@H](NC(=O)c3ccccc3)C(=O)N12)C(OCC)OCC [Compound 2100b]	< 4.70
CS(=O)(=O)N[C@H]1CCC(=O)N2CCC[C@@H](C(=O)N[C@@H](CC(=O)O)C(=O)COC(=O)c3c(Cl)cccc3Cl)N2C1=O [Compound 138]	5.54
O=C(O)C[C@H](NC(=O)[C@@H]1CCCN2C(=O)CC[C@H](NC(=O)c3ccccc3)C(=O)N12)C(=O)COC(=O)c1c(Cl)cccc1Cl [Compound 217e, [3S(1S,9S)]3-(9-Benzoylamino-6,10-dioxo-1,2,3,4,7,8,9,10-octahydro-6H-pyridazino[1,2-a][1,2]-diazepine-1-carboxamido)-5-(2,6-dichlorobenzoyloxy)-4-oxopentanoic acid]	5.70
O=C(O)C[C@H](NC(=O)[C@@H]1CCCN2C(=O)CC[C@H](NC(=O)OCc3ccccc3)C(=O)N12)C(=O)COC(=O)c1c(Cl)cccc1Cl [Compound 217d, [3S(1S,9S)]3-(9-Benzyloxycarbonylamino-6,10-dioxo-1,2,3,4,7,8,9,10-octahydro-6H-pyridazino[1,2-a][1,2]-diazepine-1-carboxamido)-5-(2,6-dichlorobenzoyloxy)-4-oxopentanoic acid]	5.40

Same assay, conditions: Homo sapiens, Table 17; read-out: Whole human blood IC50

Molecule	pIC50
O=C[C@H](CC(=O)O)NC(=O)CN1C(=O)[C@@H](NC(=O)c2ccccc2)CN(C(=O)CO)c2ccccc21 [Compound 668, (3S)-3-[(3S)-2-Oxo-3-benzoylamino-5-(2-hydroxy)acetyl-2,3,4,5-tetrahydro-1H-1,5-benzodiazepine-1-acetylamino]-4-oxo-butyric acid]	5.43
COc1c(Cl)cc(C(=O)N[C@H]2CCC(=O)N3CCC[C@@H](C(=O)N[C@H](C=O)CC(=O)O)N3C2=O)cc1Cl [Compound 214m]	5.66
O=C[C@H](CC(=O)O)NC(=O)[C@@H]1CCCN2C(=O)CC[C@H](NC(=O)c3cc(Cl)c(O)c(Cl)c3)C(=O)N12 [Compound 214k, [3S(1S,9S)]3-(9-(3,5-Dichloro-4-hydroxybenzoyl)amino-6,10-dioxo-1,2,3,4,7,8,9,10-octahydro-6H-pyridazino[1,2-a][1,2]diazepine-1-carboxamido)-4-oxobutanoic acid]	6.24

Same assay, conditions: Table 18; read-out: Whole human blood IC5O

pIC50	Molecule
5.80	CS(=O)(=O)N[C@H]1CCC(=O)N2CCC[C@@H](C(=O)N[C@@H](CC(=O)O)C(=O)COC(=O)c3cccc4ccccc34)N2C1=O [Compound 286, [3S(1S,9S)]3-(6,10-Dioxo-9-methanesulphonylamino-1,2,3,4,7,8,9,10-octahydro-6H-pyridazino[1,2-a][1,2]diazepine-1-carboxamido)-5-(1-naphthoyloxy)-4-oxopentanoic acid]
5.68	[3S(1S,9S)]3-[(6,10-Dioxo-9-(methanesulphonylamino)-1,2,3,4,7,8,9,10-octahydro-6H-pyridazino[1,2-a][1,2]diazepine-1-carboxamido]-5-(5-methyl-3-phenylisoxazoyloxy)-4-oxopentanoic acid [505 b]
6.00	CS(=O)(=O)N[C@H]1CCC(=O)N2CCC[C@@H](C(=O)N[C@@H](CC(=O)O)C(=O)COC(=O)c3sccc3Cl)N2C1=O [505 e, [3S(1S,9S)]5-(3-Chlorothien-2-oyloxy)-3-(6,10-dioxo-9-methanesulphonylamino-1,2,3,4,7,8,9,10-octahydro-6H-pyridazino[1,2-a][1,2]diazepine-1-carboxamido)-4-oxopentanoic acid]
